The values below come from patent publication US20090004185A1, “AMINO-SUBSTITUTED QUINAZOLINE DERIVATIVES AS INHIBITORS OF BETA-CATENIN/TCF-4 PATHWAY AND CANCER TREATMENT AGENTS” (WYETH, priority 2007, published 2009).

Counter-ions that a name gives are not always drawn.

Data set [1] deals with β-catenin/Tcf-4. The data set is described as follows: cells. The data set is classed as cell-based. Conditions: 24 hours of incubation with compound, ratio Firefly/Renilla luciferase. In a few lines:
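SW480-derived lines with integrated reporters (Tcf-4-driven firefly luciferase; SV40 firefly as specificity control; SV40 Renilla for cell number/toxicity), treated 24 hours with titrated compounds, final 0.316% DMSO. Dual-luciferase read-out; firefly/Renilla ratio as % of control, duplicate plates, IC50 (nM) from curve fit.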

Data set [2] deals with SV40-Luc. Kind of data set: SV40-Luc control luciferase reporter assay, SV 5A8 cell line (SV40-Luc and SV40-R-Luc), control for non-specific inhibitors. The data set is classed as cell-based, human. The conditions noted are these: SV 5A8 cells derived from SW480, 24 hours of incubation with compound, ratio Firefly/Renilla luciferase. In a few lines: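 Dual-luciferase readout in SW480 lines with chromosomally integrated reporters, namely Tcf-4-driven firefly in Tcf 33.13 and Tcf 22C11, and SV40-driven firefly in SV 5A8, all with SV40-Renilla. Compound incubation is 24 h; IC50 comes from the normalised F/R ratio.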
On the technique in general: Reporter assays use an easily measured gene product as a stand-in for the process of interest.

The mark [3] stands for this setting: Homo sapiens, SW480, 24 h, Tcf 33.13 cells derived from SW480.
[4] abbreviates: Homo sapiens, Tcf22C11, 24 h, Tcf 22C11 cells derived from SW480.
[5] abbreviates: Tcf 22C11 cells derived from SW480.
The mark [6] stands for this setting: Tcf 33.13 cells derived from SW480.

With `C=Cc1ccc2c(NCc3ccc(NC(=O)c4ccc(F)cc4)cc3)nc(N(C)C)nc2c1` (as salt: HCl) [Example 87, N-[4-({[2-(dimethylamino)-7-vinylquinazolin-4-yl]amino}methyl)phenyl]-4-fluorobenzamide], the melting point (as a rule, the temperature, or range, at which the solid turns liquid) was found to be 145 °C.
The molecule `CCc1ccc2c(NCc3ccc(NC(=O)c4ccc(F)cc4)cc3)nc(N(C)C)nc2c1` (as salt: HCl) [Example 88, N-[4-({[2-(dimethylamino)-7-ethylquinazolin-4-yl]amino}methyl)phenyl]-4-fluorobenzamide] had a melting point of 270 °C.
The same measure, in the same setting: under `CN(C)c1nc(NCc2ccc(NC(=O)c3ccc(F)cc3)cc2)c2ccc(C#N)cc2n1` (as salt: HCl) [Example 89, N-[4-({[7-cyano-2-(dimethylamino)quinazolin-4-yl]amino}methyl)phenyl]-4-fluorobenzamide] stands 150 °C; under `CN(C)c1nc(NCc2ccc(NC(=O)c3ccc(F)cc3)cc2)c2ccc(CN)cc2n1` (as salt: HCl) [Example 90, N-[4-({[7-(aminomethyl)-2-(dimethylamino)quinazolin-4-yl]amino}methyl)phenyl]-4-fluorobenzamide], 245 °C.
Molecule `CN(C)Cc1ccc2c(NCc3ccc(NC(=O)c4ccc(F)cc4)cc3)nc(N(C)C)nc2c1` (as salt: HCl) [Example 91, N-{4-[({2-(dimethylamino)-7-[(dimethylamino)methyl]quinazolin-4-yl}amino)methyl]phenyl}-4-fluorobenzamide] registered a melting point of 94 °C.
The molecule `CN(C)c1nc(NCc2ccc(NC(=O)c3ccc(F)cc3)cc2)c2ccc(CO)cc2n1` (as salt: HCl) [Example 93, N-[4-({[2-(dimethylamino)-7-(hydroxymethyl)quinazolin-4-yl]amino}methyl)phenyl]-4-fluorobenzamide] showed a melting point of 158 °C.
Same read-out and setting: under `CC(O)c1ccc2c(NCc3ccc(NC(=O)c4ccc(F)cc4)cc3)nc(N(C)C)nc2c1` (centres unmarked) (as salt: HCl) [Example 95, N-[4-({[2-(dimethylamino)-7-(1-hydroxyethyl)quinazolin-4-yl]amino}methyl)phenyl]-4-fluorobenzamide] stands 232 °C; under `C/C=C/c1ccc2c(NCc3ccc(NC(=O)c4ccc(F)cc4)cc3)nc(N(C)C)nc2c1` (as salt: HCl) [Example 96, N-{4-[({2-(dimethylamino)-7-[(1E)-prop-1-en-1-yl]quinazolin-4-yl}amino)methyl]phenyl}-4-fluorobenzamide], 268 °C.
Molecule `C/C=C\c1ccc2c(NCc3ccc(NC(=O)c4ccc(F)cc4)cc3)nc(N(C)C)nc2c1` (as salt: HCl) [Example 97, N-{4-[({2-(dimethylamino)-7-[(1Z)-prop-1-en-1-yl]quinazolin-4-yl}amino)methyl]phenyl}-4-fluorobenzamide] showed a melting point of 246 °C.
In turn, `CN(C)c1nc(NCc2ccc(NC(=O)c3ccc(F)cc3)cc2)c2ccc(-c3ccccc3C=O)cc2n1` (as salt: HCl) [Example 98, N-[4-({[2-(dimethylamino)-7-(2-formylphenyl)quinazolin-4-yl]amino}methyl)phenyl]-4-fluorobenzamide] registered a melting point of 128 °C.
As to `C#Cc1ccc2c(NCc3ccc(NC(=O)c4ccc(F)cc4)cc3)nc(N(C)C)nc2c1` (as salt: HCl) [Example 108, N-[4-({[2-(dimethylamino)-7-ethynylquinazolin-4-yl]amino}methyl)phenyl]-4-fluorobenzamide], the melting point came to 250 °C.
Take `CN(C)c1nc(NCc2ccc(NC(=O)c3ccc(Cl)nc3)cc2)c2ccc(I)cc2n1` (as salt: HCl) [Example 110, 6-chloro-N-[4-({[2-(dimethylamino)-7-iodoquinazolin-4-yl]amino}methyl)phenyl]nicotinamide]: the melting point came out at 170 °C.
`C/C=C/c1ccc2c(NCc3ccc(NC(=O)c4ccc(Cl)nc4)cc3)nc(N(C)C)nc2c1` (as salt: HCl) [Example 112, 6-chloro-N-{4-[({2-(dimethylamino)-7-[(1E)-prop-1-en-1-yl]quinazolin-4-yl}amino)methyl]phenyl}nicotinamide] had a melting point of 185 °C.
In turn, `O=C(O)CNc1nc(NCc2ccc(NC(=O)c3ccc(F)cc3)cc2)c2ccccc2n1` (as salt: HCl) [Example 127, N-[4-({4-[(4-fluorobenzoyl)amino]benzyl}amino)quinazolin-2-yl]glycine] showed a melting point of 235 °C.
`CNc1nc(NCc2ccc(NC(=O)c3ccc(C#N)cc3)cc2)c2cccc(C)c2n1` [Example 266, 4-cyano-N-[4-({[8-methyl-2-(methylamino)quinazolin-4-yl]amino}methyl)phenyl]benzamide]: the IC50 (as a rule, the concentration at which inhibition is half-maximal) in data set [1] (setting [3]) was 962 nM; in data set [1] (setting [4]), 1100 nM; in data set [2] (Homo sapiens, SV5A8, 24 h), greater than 4660 nM.
For the molecule `Cc1ccc2c(N[C@@H](C)c3ccc(NC(=O)C4CCN(Cc5ccc(F)c(F)c5)CC4)cc3)nc(N(C)C)nc2c1` [Example 268, 1-(3,4-difluorobenzyl)-N-[4-((1S)-1-{[2-(dimethylamino)-7-methylquinazolin-4-yl]amino}ethyl)phenyl]piperidine-4-carboxamide], the IC50 in data set [1] (setting [3]) is 203 nM; in data set [1] (setting [4]) it was 215 nM; in data set [2] (Homo sapiens, SV5A8, 24 h), greater than 7870 nM.
For `Cc1ccc2c(N[C@@H](C)c3ccc(NC(=O)c4ccc(Cl)nc4)cc3)nc(N(C)C)nc2c1` [Example 269, (S)-6-chloro-N-(4-(1-(2-(dimethylamino)-7-methylquinazolin-4-ylamino)ethyl)phenyl)nicotinamide], in that order: 319 nM, 439 nM and greater than 11300 nM.
Taken in the same sequence, the figures for `Cc1ccc2c(N[C@H](C)c3ccc(NC(=O)c4ccc(Cl)nc4)cc3)nc(N(C)C)nc2c1` [Example 270, (R)-6-chloro-N-(4-(1-(2-(dimethylamino)-7-methylquinazolin-4-ylamino)ethyl)phenyl)nicotinamide] were 372 nM, 429 nM and greater than 10100 nM.
For the molecule `Cc1ccc2c(N[C@@H](C)c3ccc(NC(=O)c4ccc(F)cc4)cc3)nc(N(C)C)nc2c1` [Example 271, (S)—N-(4-(1-(2-(dimethylamino)-7-methylquinazolin-4-ylamino)ethyl)phenyl)-4-fluorobenzamide], the IC50 is 1080 nM in data set [1] (setting [3]); 970 nM in data set [1] (setting [4]); greater than 5640 nM in data set [2] (Homo sapiens, SV5A8, 24 h).
Turning to `Cc1ccc2c(N[C@H](C)c3ccc(NC(=O)c4ccc(F)cc4)cc3)nc(N(C)C)nc2c1` [Example 272, (R)—N-(4-(1-(2-(dimethylamino)-7-methylquinazolin-4-ylamino)ethyl)phenyl)-4-fluorobenzamide], the half-maximal inhibitory concentration (IC50) is 986 nM in data set [1] (setting [3]); 894 nM in data set [1] (setting [4]); greater than 5420 nM in data set [2] (Homo sapiens, SV5A8, 24 h).
With `Cc1cccc2c(N[C@@H](C)c3ccc(NC(=O)c4ccc(Cl)nc4)cc3)nc(N(C)C)nc12` [Example 273, (S)-6-chloro-N-(4-(1-(2-(dimethylamino)-8-methylquinazolin-4-ylamino)ethyl)phenyl)nicotinamide], the concentration for half-maximal inhibition (IC50) in data set [1] (setting [3]) was 3950 nM; in data set [1] (setting [4]) it was greater than 2340 nM; in data set [2] (Homo sapiens, SV5A8, 24 h) it was greater than 9360 nM.
Turning to `Cc1ccc2nc(N(C)C)nc(N[C@@H](C)c3ccc(NC(=O)c4ccc(Cl)nc4)cc3)c2c1` [Example 274, (S)-6-chloro-N-(4-(1-(2-(dimethylamino)-6-methylquinazolin-4-ylamino)ethyl)phenyl)nicotinamide], the IC50 was 1840 nM in data set [1] (setting [3]); 1010 nM in data set [1] (setting [4]); greater than 9360 nM in data set [2] (Homo sapiens, SV5A8, 24 h).
Turning to `CNc1nc(N[C@@H](C)c2ccc(NC(=O)c3ccc(F)cc3)cc2)c2cccc(C)c2n1` [Example 275, (S)-4-fluoro-N-(4-(1-(8-methyl-2-(methylamino)quinazolin-4-ylamino)ethyl)phenyl)benzamide], the IC50 is 549 nM in data set [1] (setting [3]); 522 nM in data set [1] (setting [4]); greater than 1240 nM in data set [2] (Homo sapiens, SV5A8, 24 h).
Consider `CNc1nc(N[C@H](C)c2ccc(NC(=O)c3ccc(F)cc3)cc2)c2cccc(C)c2n1` [Example 276, (R)-4-fluoro-N-(4-(1-(8-methyl-2-(methylamino)quinazolin-4-ylamino)ethyl)phenyl)benzamide], for which the IC50 in data set [1] (setting [3]) was 494 nM; in data set [1] (setting [4]), 653 nM; in data set [2] (Homo sapiens, SV5A8, 24 h), greater than 2490 nM.
Turning to “N-(4-{[(2-azetidin-1-yl-7-methylquinazolin-4-yl)amino]methyl}phenyl)-1-benzylpiperidine-4-carboxamide [Example 137]”, the IC50 in data set [1] (setting [5]) is 1260 nM; in data set [1] (setting [6]), 1130 nM; in data set [2], greater than 17300 nM.
Consider “N-[4-({[6-nitro-2-(methylamino)quinazolin-4-yl]amino}methyl)phenyl]nicotinamide [Example 188]”, for which the half-maximal inhibitory concentration (IC50) in data set [1] (setting [5]), in data set [1] (setting [6]) and in data set [2] was greater than 23300 nM in each case.
For “N-{4-[({6,8-dimethyl-2-[(3S)-3-methylpiperazin-1-yl]quinazolin-4-yl}amino)methyl]phenyl}-4-fluorobenzamide [Example 50]”, the half-inhibitory concentration (IC50) in data set [1] (setting [5]) was greater than 1250 nM; in data set [1] (setting [6]) it was 1490 nM; in data set [2], greater than 5010 nM.
